Assay results from ChEMBL document CHEMBL1909530, “Computational techniques are valuable tools for the discovery of protein-protein interaction inhibitors: the 14-3-3σ case” (Bioorg Med Chem Lett, 2011).
Where a chain is given by its changes, count along the chain named. Calls of active or inactive are those of the source. The rule behind the calls is not given here.

Tests used:
[1] = molecular target: T1, 14-3-3 protein sigma (Homo sapiens) (UniProt P31947); test: Inhibition of 14-3-3sigma binding domain in human Ba/F3 cells expressing imatibib-resistant Bcr-Abl T315I mutant construct assessed as inhibition of 14-3-3sigma-c-Abl interaction; format: cell-based; conditions: BaF3
T1 sequence (whole entry): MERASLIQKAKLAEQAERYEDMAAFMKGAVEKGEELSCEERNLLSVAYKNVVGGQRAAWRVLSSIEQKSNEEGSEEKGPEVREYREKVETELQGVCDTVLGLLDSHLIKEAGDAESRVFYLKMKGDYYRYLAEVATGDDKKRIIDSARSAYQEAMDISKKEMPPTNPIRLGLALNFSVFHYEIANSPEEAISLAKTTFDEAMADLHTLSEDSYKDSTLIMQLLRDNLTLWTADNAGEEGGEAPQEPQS

[2] = molecular target: T1, 14-3-3 protein sigma (Homo sapiens); test: Inhibition of 14-3-3sigma binding domain in human Ba/F3 cells expressing imatibib-sensitive wild type Bcr-Abl construct assessed as inhibition of 14-3-3sigma-c-Abl interaction; format: cell-based; conditions: BaF3
[3] = molecular target: T1, 14-3-3 protein sigma (Homo sapiens); test: Inhibition of 14-3-3sigma in human Ba/F3 cells expressing imatinib-sensitive wild type Bcr-Abl construct assessed as release of full-length c-Abl from cytoplasmic complex with 14-3-3sigma at 5 uM after 24 hrs by immunoprecipitation/immunoblot technique; format: cell-based; conditions: BaF3
[4] = molecular target: T1, 14-3-3 protein sigma (Homo sapiens); test: Inhibition of 14-3-3sigma in human Ba/F3 cells expressing imatinib-sensitive wild type Bcr-Abl construct assessed as nuclear import of full-length c-Abl at 5 uM after 24 hrs by immunoprecipitation/immunoblot technique; format: cell-based; conditions: BaF3
[5] = molecular target: T1, 14-3-3 protein sigma (Homo sapiens); test: Inhibition of 14-3-3sigma in human Ba/F3 cells expressing imatinib-sensitive wild type Bcr-Abl construct assessed as cleaved c-Abl at mitochondrial membranes at 5 uM after 24 hrs by immunoprecipitation/immunoblot technique; format: cell-based; conditions: BaF3
14-3-3 protein sigma = molecular target: T2, 14-3-3 protein sigma (Homo sapiens, UniProt P31947); test: Binding affinity to histidine-tagged human recombinant 14-3-3sigma by transferred NOESY analysis
T2 sequence (P31947 whole entry): T1 sequence (whole entry)

[6] = molecular target: T1, 14-3-3 protein sigma (Homo sapiens); test: Inhibition of 14-3-3sigma in human Ba/F3 cells expressing imatinib-sensitive wild type Bcr-Abl construct assessed as relocation of full-length c-Abl to mitochondrial membranes at 5 uM after 24 hrs by immunoprecipitation/immunoblot technique; format: cell-based; conditions: BaF3
[7] = molecular target: T1, 14-3-3 protein sigma (Homo sapiens); conditions: BaF3, 1 uM
Description: Inhibition of 14-3-3sigma in human Ba/F3 cells expressing wild type Bcr-Abl construct assessed as release of full-length c-Abl from cytoplasmic complex with 14-3-3sigma at 1 uM after 24 hrs by immunoprecipitation/immunoblot technique

[8] = molecular target: T1, 14-3-3 protein sigma (Homo sapiens); test: Inhibition of 14-3-3sigma in human Ba/F3 cells expressing imatinib-sensitive wild type Bcr-Abl construct assessed as cell survival; format: cell-based; conditions: BaF3
[9] = molecular target: T3, 14-3-3 protein sigma (Mus musculus) (UniProt O70456); test: Inhibition of 14-3-3sigma in mouse 32D cells expressing imatinib-sensitive wild type Bcr-Abl construct assessed as cell survival; format: cell-based
T3 sequence (whole entry): T1 sequence (whole entry) with G28S, R82K, Q93R, E110G, N234S, Q244E

SMILES: Cc1c(NC(=O)c2cc(C(=O)O)ccc2C(=O)O)c(=O)n(-c2ccccc2)n1C
- LD50 [1]: 1.47 µM
- LD50 [2]: 1.04 µM

SMILES: CCCCCCOC(=O)c1ccc(Nc2c([N+](=O)[O-])cc(C(=O)O)cc2[N+](=O)[O-])cc1
- inhibition [3]: Active
- inhibition [4]: Active
- LD50 [1]: 1.7 µM
- inhibition [5]: Active
- Kd (14-3-3 protein sigma): > 1 µM
- inhibition [6]: Active
- LD50 [2]: 1.41 µM

SMILES: Cc1ccc(NC(=O)c2ccc(CN3CCN(C)CC3)cc2)cc1Nc1nccc(-c2cccnc2)n1
- inhibition [7]: Active

SMILES: Cc1ccc(-c2cc(-c3ccccc3)nc(N/N=C/c3cc([N+](=O)[O-])ccc3O)n2)cc1
- LD50 [8]: 0.65 µM
- LD50 [9]: 2.84 µM
- LD50 [2]: 0.65 µM
